In patent US10065941B2, “Aminotriazine derivative and pharmaceutical composition comprising the same” (Shionogi & Co., Ltd., priority 2013, dated 2018):

Biological target: human P2X3 receptor (Homo sapiens (Human), UniProt P56373)
Test: Evaluation of human P2X3 receptor inhibitory activity (Test Example 1)
Assay type: cell-based
Conditions: C6BU-1 cell transfected with human P2X3 receptor gene, FLIPR 384
Experimental: Stably expressing cell line (C6BU-1 cell transfected with human P2X3 receptor gene (GenBank accession number Y07683) was used. The cells were seeded in a 384-well PDL-coated microtiter plate at a concentration of 3000 cells/well and cultured in the medium (8.3% fetal bovine serum, 8.3% horse serum, and 1% antibiotic and antifungal in DMEM) for one day at 37° C. under 5% carbon dioxide atmosphere. The medium was replaced with 4 μM Fluo-3-AM solution (20 mM HEPES, 137 mM NaCl, 2.7 mM KCl, 0.9 mM MgCl2, 5.0 mM CaCl2, 5.6 mM D-glucose, 2.5 mM probenecid, 0.5% BSA, and 0.04% Pluronic F-127, pH 7.5) and incubated at 37° C. under 5% dioxide carbon atmosphere for one hour. The plate was washed with washing buffer (20 mM HEPES, 137 mM NaCl, 2.7 mM KCl, 0.9 mM MgCl2, 5.0 mM CaCl2, 5.6 mM D-glucose, 2.5 mM probenecid, pH7.5), and each well was added with 20 μL of the washing buffer. The plate was placed in High-Throughput Screening System FLIPR 384 (Molecular Device Co.). Measurement of fluorescence intensity by FLIPR 384 was started, and 20 μL of DMSO solutions containing different concentrations of the test compound as prepared by dilution with dilution buffer (20 mM HEPES, 137 mM NaCl, 2.7 mM KCl, 0.9 mM MgCl2, 5.0 mM CaCl2, 5.6 mM D-glucose, 2.5 mM probenecid, 0.1% Pluronic F-127, pH7.5) were dispensed to each well through the built-in automatic dispenser. Five minutes after, 150 nM ATP solution (25 μL) prepared by dilution with the dilution buffer was dispensed through the built-in automatic dispenser, and the measurement of fluorescence intensity was continued for 4 min. For each well, the specific maximum fluorescence intensity was calculated as the ratio of the maximum fluorescence intensity after addition of the ATP solution to the fluorescence intensity at the starting of the measurement. […] The specific maximum fluorescence intensity and IC50 were calculated using Spotfire (Science & Technology Systems, Inc.)

Chain of human P2X3 receptor (P56373 whole entry): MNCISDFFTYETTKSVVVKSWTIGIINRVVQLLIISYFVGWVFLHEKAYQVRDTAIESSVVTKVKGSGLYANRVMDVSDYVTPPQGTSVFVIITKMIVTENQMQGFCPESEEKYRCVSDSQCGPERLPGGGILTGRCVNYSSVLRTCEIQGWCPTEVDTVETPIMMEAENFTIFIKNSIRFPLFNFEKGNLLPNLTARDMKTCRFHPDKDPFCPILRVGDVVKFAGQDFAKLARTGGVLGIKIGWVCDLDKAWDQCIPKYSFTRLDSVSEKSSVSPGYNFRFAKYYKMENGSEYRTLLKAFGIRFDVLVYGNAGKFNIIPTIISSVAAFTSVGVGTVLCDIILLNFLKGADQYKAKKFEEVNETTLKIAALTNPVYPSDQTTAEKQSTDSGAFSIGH

Row | Structure (SMILES) | IC50 [µM]
1 | COC(=O)[C@H](C)[C@H](C)n1c(=O)[nH]/c(=N\c2ccc(Oc3ccc(F)cn3)c(F)c2)n(Cc2ccc(Cl)cc2)c1=O [Compound I-001] | 0.044
2 | COC(=O)C(C)(C)Cn1c(=O)[nH]/c(=N\c2ccc(Oc3ccc(F)cn3)cc2)n(Cc2ccc(Cl)cc2)c1=O [Compound I-003] | 0.007
3 | COC(=O)C(C)(C)Cn1c(=O)[nH]/c(=N\c2ccc(Oc3ccc(Cl)cn3)cc2)n(Cc2ccc(Cl)cc2)c1=O [Compound I-004] | 0.014
4 | CC(C)(Cn1c(=O)[nH]/c(=N\c2ccc(Oc3ccc(F)cn3)cc2)n(Cc2ccc(Cl)cc2)c1=O)C(=O)O [Compound I-005] | 0.008
5 | COC(=O)C(C)(C)Cn1c(=O)[nH]/c(=N\c2ccc(Oc3ncccc3F)cc2)n(Cc2ccc(Cl)cc2)c1=O [Compound I-007] | 0.009
6 | COC(=O)C(C)(C)Cn1c(=O)[nH]/c(=N\c2ccc(Oc3cccc(F)n3)cc2)n(Cc2ccc(Cl)cc2)c1=O [Compound I-008] | 0.007
7 | CC(C)(Cn1c(=O)[nH]/c(=N\c2ccc(Oc3ncccc3F)cc2)n(Cc2ccc(Cl)cc2)c1=O)C(=O)O [Compound I-009] | 0.007
8 | CC(C)(Cn1c(=O)[nH]/c(=N\c2ccc(Oc3cccc(F)n3)cc2)n(Cc2ccc(Cl)cc2)c1=O)C(=O)O [Compound I-010] | 0.005
9 | COC(=O)[C@@H](C)Cn1c(=O)[nH]/c(=N\c2ccc(Oc3cccc(Cl)n3)cc2)n(Cc2ccc(Cl)cc2)c1=O [Compound I-011] | 0.018
10 | COC(=O)C(C)(C)Cn1c(=O)[nH]/c(=N\c2ccc(Oc3cccc(Cl)n3)cc2)n(Cc2ccc(Cl)cc2)c1=O [Compound I-012] | 0.025
11 | COC(=O)[C@H](C)[C@H](C)n1c(=O)[nH]/c(=N\c2ccc(Oc3cccc(Cl)n3)cc2)n(Cc2ccc(Cl)cc2)c1=O [Compound I-013] | 0.058
12 | CC(C)(Cn1c(=O)[nH]/c(=N\c2ccc(Oc3cccc(Cl)n3)cc2)n(Cc2ccc(Cl)cc2)c1=O)C(=O)O [Compound I-015] | 0.009
13 | C[C@@H](C(=O)O)[C@H](C)n1c(=O)[nH]/c(=N\c2ccc(Oc3cccc(Cl)n3)cc2)n(Cc2ccc(Cl)cc2)c1=O [Compound I-016] | 0.008
14 | O=C(O)C1(Cn2c(=O)[nH]/c(=N\c3ccc(Oc4ccc(F)cn4)cc3)n(Cc3ccc(Cl)cc3)c2=O)CC1 [Compound I-018] | 0.012
15 | O=c1[nH]/c(=N\c2ccc(Oc3ccc(F)cn3)cc2)n(Cc2ccc(Cl)cc2)c(=O)n1[C@H]1C[C@@H](C(=O)O)C1 [Compound I-020] | 0.009
16 | COC(=O)C(C)(C)Cn1c(=O)[nH]/c(=N\c2ccc(Oc3ccc(OC(F)F)cn3)cc2)n(Cc2ccc(Cl)cc2)c1=O [Compound I-021] | 0.025
17 | C[C@@H](Cn1c(=O)[nH]/c(=N\c2ccc(Oc3ccc(OC(F)F)cn3)cc2)n(Cc2ccc(Cl)cc2)c1=O)C(=O)O [Compound I-022] | 0.004
18 | CC(C)(Cn1c(=O)[nH]/c(=N\c2ccc(Oc3ccc(OC(F)F)cn3)cc2)n(Cc2ccc(Cl)cc2)c1=O)C(=O)O [Compound I-023] | 0.007
19 | COC(=O)[C@@H](C)Cn1c(=O)[nH]/c(=N\c2ccc(Oc3ncccc3F)cc2)n(Cc2ccc(F)cc2F)c1=O [Compound I-024] | 0.034
20 | COC(=O)[C@@H](C)Cn1c(=O)[nH]/c(=N\c2ccc(Oc3cccc(F)n3)cc2)n(Cc2ccc(F)cc2F)c1=O [Compound I-026] | 0.017
21 | C[C@@H](Cn1c(=O)[nH]/c(=N\c2ccc(Oc3ncccc3F)cc2)n(Cc2ccc(F)cc2F)c1=O)C(=O)O [Compound I-027] | 0.039
22 | C[C@@H](Cn1c(=O)[nH]/c(=N\c2ccc(Oc3ccc(F)cn3)cc2)n(Cc2ccc(F)cc2F)c1=O)C(=O)O [Compound I-028] | 0.02
23 | COC(=O)[C@@H](C)Cn1c(=O)[nH]/c(=N\c2ccc(Oc3ncccc3C(F)(F)F)cc2)n(Cc2ccc(Cl)cc2)c1=O [Compound I-030] | 0.176
24 | COC(=O)C(C)(C)Cn1c(=O)[nH]/c(=N\c2ccc(Oc3ncccc3C(F)(F)F)cc2)n(Cc2ccc(Cl)cc2)c1=O [Compound I-031] | 0.199
25 | C[C@@H](Cn1c(=O)[nH]/c(=N\c2ccc(Oc3ncccc3C(F)(F)F)cc2)n(Cc2ccc(Cl)cc2)c1=O)C(=O)O [Compound I-032] | 0.011
26 | CC(C)(Cn1c(=O)[nH]/c(=N\c2ccc(Oc3ncccc3C(F)(F)F)cc2)n(Cc2ccc(Cl)cc2)c1=O)C(=O)O [Compound I-033] | 0.023

Row | Structure (SMILES) | IC50 [µM]
27 | COC(=O)[C@@H](C)Cn1c(=O)[nH]/c(=N\c2ccc(Oc3ccc(C(F)(F)F)cn3)cc2)n(Cc2ccc(C)cc2)c1=O [Compound I-034] | 0.009
28 | COC(=O)[C@@H](C)Cn1c(=O)[nH]/c(=N\c2ccc(Oc3cccc(C(F)(F)F)n3)cc2)n(Cc2ccc(C)cc2)c1=O [Compound I-035] | 0.012
29 | COC(=O)C(C)(C)Cn1c(=O)[nH]/c(=N\c2ccc(Oc3ccc(F)cn3)cc2)n(Cc2ccc(C)cc2)c1=O [Compound I-037] | 0.006
30 | Cc1ccc(Cn2c(=O)n(C[C@H](C)C(=O)O)c(=O)[nH]/c2=N\c2ccc(Oc3ccc(C(F)(F)F)cn3)cc2)cc1 [Compound I-038] | 0.005
31 | Cc1ccc(Cn2c(=O)n(C[C@H](C)C(=O)O)c(=O)[nH]/c2=N\c2ccc(Oc3cccc(C(F)(F)F)n3)cc2)cc1 [Compound I-039] | 0.008
32 | Cc1ccc(Cn2c(=O)n(CC(C)(C)C(=O)O)c(=O)[nH]/c2=N\c2ccc(Oc3ccc(F)cn3)cc2)cc1 [Compound I-041] | 0.009
33 | O=c1[nH]/c(=N\c2ccc(Oc3cccc(F)n3)cc2)n(Cc2ccc(Cl)cc2)c(=O)n1CC1(CO)COC1 [Compound I-042] | 0.004
34 | COC(=O)[C@@H](C)Cn1c(=O)[nH]/c(=N\c2ccc(Oc3ncccc3OC(F)F)cc2)n(Cc2ccc(Cl)cc2)c1=O [Compound I-043] | 0.117
35 | C[C@@H](Cn1c(=O)[nH]/c(=N\c2ccc(Oc3ncccc3OC(F)F)cc2)n(Cc2ccc(Cl)cc2)c1=O)C(=O)O [Compound I-044] | 0.026
36 | COC(=O)[C@@H](C)Cn1c(=O)[nH]/c(=N\c2ccc(Oc3ncccc3C#N)cc2)n(Cc2ccc(Cl)cc2)c1=O [Compound I-045] | 0.019
37 | COC(=O)C(C)(C)Cn1c(=O)[nH]/c(=N\c2ccc(Oc3ncccc3C#N)cc2)n(Cc2ccc(Cl)cc2)c1=O [Compound I-046] | 0.019
38 | C[C@@H](Cn1c(=O)[nH]/c(=N\c2ccc(Oc3ncccc3C#N)cc2)n(Cc2ccc(Cl)cc2)c1=O)C(=O)O [Compound I-047] | 0.022
39 | CC(C)(Cn1c(=O)[nH]/c(=N\c2ccc(Oc3ncccc3C#N)cc2)n(Cc2ccc(Cl)cc2)c1=O)C(=O)O [Compound I-048] | 0.03
40 | O=C(O)C1(Cn2c(=O)[nH]/c(=N\c3ccc(Oc4cccc(F)n4)cc3)n(Cc3ccc(Cl)cc3)c2=O)COC1 [Compound I-049] | 0.015
41 | O=C(O)C1(Cn2c(=O)[nH]/c(=N\c3ccc(Oc4ncccc4F)cc3)n(Cc3ccc(Cl)cc3)c2=O)COC1 [Compound I-050] | 0.028
42 | COC(=O)[C@@H](C)Cn1c(=O)[nH]/c(=N\c2ccc(Oc3ccc(C)cn3)cc2)n(Cc2ccc(Cl)cc2)c1=O [Compound I-051] | 0.006
43 | COC(=O)[C@@H](C)Cn1c(=O)[nH]/c(=N\c2ccc(Oc3ncccc3F)cc2)n(Cc2ccc(C)cc2)c1=O [Compound I-052] | 0.006
44 | COC(=O)[C@@H](C)Cn1c(=O)[nH]/c(=N\c2ccc(Oc3cccc(F)n3)cc2)n(Cc2ccc(C)cc2)c1=O [Compound I-053] | 0.006
45 | Cc1ccc(Oc2ccc(/N=c3\[nH]c(=O)n(C[C@H](C)C(=O)O)c(=O)n3Cc3ccc(Cl)cc3)cc2)nc1 [Compound I-054] | 0.005
46 | COC(=O)C(C)(C)Cn1c(=O)[nH]/c(=N\c2ccc(Oc3ccc(C)cn3)cc2)n(Cc2ccc(Cl)cc2)c1=O [Compound I-055] | 0.009
47 | Cc1ccc(Cn2c(=O)n(C[C@H](C)C(=O)O)c(=O)[nH]/c2=N\c2ccc(Oc3ncccc3F)cc2)cc1 [Compound I-056] | 0.007
48 | O=C(O)C1(Cn2c(=O)[nH]/c(=N\c3ccc(Oc4ccc(F)cn4)cc3)n(Cc3ccc(Cl)cc3)c2=O)COC1 [Compound I-059] | 0.016
49 | COC(=O)[C@@H](C)Cn1c(=O)[nH]/c(=N\c2ccc(Oc3cc(Cl)ccn3)cc2)n(Cc2ccc(Cl)cc2)c1=O [Compound I-060] | 0.024
50 | CCOC(=O)[C@H]1C[C@H](n2c(=O)[nH]/c(=N\c3ccc(Oc4ncccc4F)cc3)n(Cc3ccc(Cl)cc3)c2=O)C1 [Compound I-061] | 0.062
51 | CCOC(=O)[C@H]1C[C@@H](n2c(=O)[nH]/c(=N\c3ccc(Oc4ncccc4F)cc3)n(Cc3ccc(Cl)cc3)c2=O)C1 [Compound I-062] | 0.031
52 | O=c1[nH]/c(=N\c2ccc(Oc3ncccc3F)cc2)n(Cc2ccc(Cl)cc2)c(=O)n1[C@H]1C[C@@H](C(=O)O)C1 [Compound I-064] | 0.01
